Tests used:
BDNF [1] = settings: PTSD-induced mice; cited from earlier work
BDNF [2] = test: RT-PCR of BDNF expression in HT-22 cell; type: cell-based; settings: H2O2 treatment
Text: The used […] BDNF, forward [NT], and reverse [NT]; glutathione peroxidase (GPx), forward [NT], and reverse [NT]; superoxide dismutasee 1 (SOD1), forward [NT], and reverse [NT]; glutathione reductase (GR), forward [NT], and reverse [NT]; and h-GAPDH transfer [NT], reverse [NT]. All experiments were implemented three times.

p-ERK and p-CREB = test: Western blot analysis of ERK and CREB phosphorylation in HT-22 cells; type: cell-based; settings: H2O2 treatment
Method: The level of protein expression was evaluated by Western blot analysis. Cells were dissolved and centrifuged at 16,000 g. Then, the supernatant was electrophoresed at 12% SDA-PAGE and transferred to a nitrocellulose membrane. After blocking with 5% skim milk among Tween (0.05%)/PBS for 1 hour, the membrane was detected with primary antibody and a horseradish peroxidase (HRP)-conjugated antibody. The immunoreactive band was visualized using West Femto Chemi-luminescent substrate (Thermo). Protein levels were standardized with -actin expression using ChemiDOC XRS+ (Bio-Rad, Hercules, Calif., USA).

HT-22 cells = test: MTT analysis of cell survival under H2O2-induced oxidative stress; type: cell-based; settings: without LED light
Method: The protection against apoptosis was analyzed using CCK-8 kit (Dojindo, Gaithersburg, Md.) and MTT as follows: HT-22 cells (5×10^5/ml) were plated on a 96-well plate and cultured in 100 µL of DMEM medium for 24 hours. Various concentrations of H2O2 were added to the cells, and the cells were cultured for 24 hours with LED irradiation of 660 nm. Then, 10 µL of MTT solution (5 mg/ml MTT in PBS) was added to each well and cultured at 37° C. for 2 hours. Absorbance was measured at 450 nm and 564 nm with a Victor multi label counter (Wallac, Turku, Finland).
The hippocampus HT-22 cell line was used to evaluate the effect of H2O2-induced oxidative stress on cell survival and apoptosis inhibitory effect by 660 nm of LED light (FIG. 2). […] In contrast, treatment with 660 nm of LED light increased cell survival rates to 88.4, 66.2, and 22.0%, respectively.

CNCCC(Oc1ccc(C(F)(F)F)cc1)c1ccccc1 (stereo not drawn) [fluoxetine]
expression of BDNF and exercise ability (BDNF [1]): improved

OO [H2O2]
BDNF expression (BDNF [2]): reduced BDNF expression | p-ERK and p-CREB levels (p-ERK and p-CREB): increased p-ERK and p-CREB levels | cell survival rate (HT-22 cells; H2O2 100M): 72.7% | cell survival rate (HT-22 cells; H2O2 300M): 57.3% | cell survival rate (HT-22 cells; H2O2 1000M): 20.7%
